Results taken from patent publication US20210196654A1, “METHOD OF TREATING CONDITIONS” (Clexio Biosciences Ltd., priority 2019, published 2021).
Like-named read-outs stand apart in the source and are kept apart here.

Columns and labels:
[1] = Single dose crossover study in healthy volunteers, pharmacokinetics; details: both, human, plasma; for AUC(0-inf): AUC0-inf; for AUC(0-inf) / AUC(0-t) / Cmax: geometric mean; for AUC(0-t): AUC0-t; for Cmax: 15 subjects; for half-life: t1/2, geometric mean; for Tmax: median
Description: A randomized, open-label 4-way crossover study in 16 healthy male and female subjects was held wherein said subjects were placed in a randomly assigned order and administered esketamine. Each subject was assigned to 1 of 4 treatment sequences according to a randomization code such that 4 subjects were assigned to each treatment sequence. There was a wash-out period of at least 7 days between dosing periods with doses consisting of either oral or intravenous esketamine hydrochloride. The study consisted of an eligibility screening period of 28 days, 4 study periods involving administration of a single dose of esketamine hydrochloride followed by safety assessments with blood sampling for PK purposes up to 72 hours after study drug administration, discharge at 72 hours after study drug administration and a follow-up visit 7-14 days after the last PK blood sample was taken on Day 4.

[2] = system: human peripheral blood lymphocytes (HPBL)
Experimental: (§1) The clastogenic potential of esketamine was evaluated in the in vitro mammalian chromosome aberration test using human peripheral blood lymphocytes (HPBL) in both the absence and presence of an induced metabolic activation system (the 9000 g supernatant [S9] microsomal fraction of liver homogenate from rats exposed to Aroclor-1254).
The study was conducted in 2 phases, with a preliminary toxicity test used to determine the appropriate concentrations for the definitive chromosomal aberration assay. Water was used as a negative (vehicle) control. Toxicity (defined as >45% reduction in MI relative to the vehicle control) was evaluated at 9 concentrations, ranging from 0.0238 to 238 μg/ml, after exposure of HPBL to esketamine for 20 hours in the absence of S9 activation, or for 4 hours, either in the presence or absence of S9 activation, followed by a 16-hour recovery period.
The definitive chromosome aberration assay evaluated HPBL cells after exposure to esketamine for 20 hours in the absence of S9 activation, or for 4 hours, either in the presence of absence of S9 activation, followed by a 16-hour recovery. Positive controls for chromosomal aberrations in non-activated and S9-activated evaluations, respectively, consisted of mitomycin C (MMC, 0.6 and 0.3 μg/mL for the 4- and 20-hour exposures, respectively) and cyclophosphamide (CP, 2.5, 5, and 7.5 μg/mL). […] Initially, the doses selected for evaluation of chromosomal aberrations were 60, 120, and 238 μg/mL for the non-activated 4- and 20-hour treatment conditions; and 30, 60, and 200 μg/mL for the S9-activated 4-hour treatment condition.

[3] = system: human peripheral blood lymphocytes (HPBL); remark: listed apart in the source
Experimental: as §1, with “(S)-norketamine” for “esketamine”, “phenobarbital/5,6-benzoflavone).” for “Aroclor-1254).”
The study was conducted in 2 phases, with a preliminary toxicity test used to determine the appropriate concentrations for the definitive chromosomal aberration assay. Water was used as a negative (vehicle) control. In both phases, the cells were treated for 3 and 21 hours in the absence of S9 mix and for 3 hours in the presence of S9 mix. The mitotic index was assessed for all cultures to determine cytotoxicity. Ten concentrations, ranging from […], were evaluated in the preliminary toxicity test.

bipolar disorder = details: intravenous; cited from earlier work
[4] = system: Generalized Anxiety and Social Anxiety Disorder patients; details: treatment-refractory patients; cited from earlier work
[5] = system: Parkinson's disease sufferers; details: cited from earlier work
chronic pain = details: oral; cited from earlier work
[6] = Yanagihara et al (2003); cited from earlier work
[7] = system: animal models of depression; details: cited from earlier work
[8] = iv, 0.3 mg/kg, plasma analyte after single dose esketamine 0.3 mg/kg iv
[9] = po, 20 mg, plasma analyte after single dose esketamine 20 mg oral solution
[10] = po, 20 mg, plasma analyte after single dose esketamine 20 mg oral tablet
[11] = po, 100 mg, plasma analyte after single dose esketamine 100 mg oral tablet
[12] = S9-activated system, positive control

Row | SMILES | AUC(0-inf) [1, 8] | AUC(0-t) [1, 8] | Cmax [1, 8] | half-life [1, 8] | Tmax [1, 8] | AUC(0-inf) [1, 9] | AUC(0-inf) [1, 10] | AUC(0-t) [1, 9] | AUC(0-t) [1, 10] | Cmax [1, 9] | Cmax [1, 10] | half-life [1, 9] | half-life [1, 10] | Tmax [1, 9] | Tmax [1, 10] | AUC(0-inf) [1, 11] | AUC(0-t) [1, 11] | Cmax [1, 11] | half-life [1, 11] | Tmax [1, 11] | further results
1 | N[C@]1(c2ccccc2Cl)CCC[C@H](O)C1=O [(2S,6S)-OH-Norketamine, (2S,6S)-2-Amino-2-(2-chlorophenyl)-6-hydroxycyclohexanone] | 390 ng·h/mL | 376 ng·h/mL | 24.8 ng/mL | 10.7 h | 3 h | 378 ng·h/mL | 401 ng·h/mL | 366 ng·h/mL | 390 ng·h/mL | 46.5 ng/mL | 45.8 ng/mL | 7.83 h | 7.77 h | 1 h | 1.5 h | 1960 ng·h/mL | 1950 ng·h/mL | 189 ng/mL | 8.92 h | 2 h | 
2 | CO[C@@]12[C@H](COC(N)=O)C3=C(C(=O)C(C)=C(N)C3=O)N1C[C@@H]1N[C@@H]12 [MMC, mitomycin C] |  |  |  |  |  |  |  |  |  |  |  |  |  |  |  |  |  |  |  |  | cells with structural chromosomal aberrations [2]: 13.3%; mean MI value ([2]; non-activated systems, positive control): 9%; proportion of aberrant cells [3]: statistically significant increases
3 | CNC1(c2ccccc2Cl)CCCCC1=O (stereo not drawn) [ketamine, dl 2-(2-chlorophenyl)-2(methylamino) cyclohexanone] |  |  |  |  |  |  |  |  |  |  |  |  |  |  |  |  |  |  |  |  | effect in bipolar disorder (bipolar disorder): robust and rapid effect; anxiety ratings [4]: improvement in anxiety ratings within an hour of ketamine dosing which persisted for up to a week; levodopa induced dyskinesia [5]: could reduce levodopa induced dyskinesia; chronic pain (chronic pain): could reduce chronic pain; nasal bioavailability [6]: 45%
4 | O=P1(N(CCCl)CCCl)NCCCO1 (centres unmarked) [CP, cyclophosphamide] |  |  |  |  |  |  |  |  |  |  |  |  |  |  |  |  |  |  |  |  | cells with structural aberrations [2, 12]: 10.7%; mean MI value [2, 12]: 6.2%; proportion of aberrant cells ([3]; positive control compounds): statistically significant increases
5 | CN[C@@]1(c2ccccc2Cl)CCCCC1=O [(R)-ketamine, (2R)-2-(2-Chlorophenyl)-2-(methylamino) cyclohexanone] |  |  |  |  |  |  |  |  |  |  |  |  |  |  |  |  |  |  |  |  | antidepressant effects compared with esketamine [7]: greater potency and longer-lasting antidepressant effects than esketamine
6 | N[C@]1(c2ccccc2Cl)CCCCC1=O [(S)-norketamine, (2S)-2-(2-Chlorophenyl)-2-(amino) cyclohexanone] | 441 ng·h/mL | 426 ng·h/mL | 42.2 ng/mL | 11.3 h | 1.25 h | 417 ng·h/mL | 429 ng·h/mL | 405 ng·h/mL | 418 ng·h/mL | 99.8 ng/mL | 89.7 ng/mL | 8.88 h | 8.75 h | 0.75 h | 1 h | 2280 ng·h/mL | 2270 ng·h/mL | 352 ng/mL | 9.27 h | 1 h | Toxicity (mitotic index), preliminary toxicity test [3]: not observed at any dose; clastogenicity, conclusion [3]: non-clastogenic; proportion of metaphase figures containing chromosomal aberrations vs vehicle control [3]: no statistically significant increases; proportion of polyploid or endoreduplicated metaphase cells vs vehicle control ([3]; any treatment condition): No statistically significant increases
